Test results: US20100099762A1, “COMBINATION THERAPY” (THE MENTAL HEALTH RESEARCH INSTITUTE OF VICTORIA, priority 2006, published 2010)

Experiments:
[1] = test system: bipolar disorder; assay: Double blind randomised placebo controlled trial of NAC in addition to treatment as usual in bipolar disorder; type: in vivo, human
Source text: Consented individuals were assigned using simple randomization (Beller et al., 2002) to treatment with NAC or placebo in addition to treatment as usual, in a double-blind fashion. The nature and dose of the primary therapy was monitored. The person generating the randomisation schedule was not involved in any aspect of participant interview. The investigators, clinicians and statisticians were blind to treatment allocation until the data analysis was completed. The study was registered with the Australian Clinical Trials Registry (Protocol #12605000362695). Participants were recruited through advertisements, their private psychiatrists and database screening. All participants provided written informed consent. The trial setting was in the public and private outpatient psychiatry clinics of the participating centers. The trial was approved by each participating research and ethics committee (Barwon Health, Southwest Area Mental Health Service, Bendigo Health, all in Victoria, Australia), and was conducted according to Good Clinical Practice guidelines.
All randomized participants received two NAC (500 mg) capsules twice daily (2 g daily), or matching placebo. We selected a daily dose that was at the upper dosing range for published clinical trials of oral NAC of 12 weeks to 12 months duration, and that reported evidence of tolerability and some efficacy (Adair et al., 2001; Van Schooten et al., 2002; Behr et al., 2002; Demedts et al., 2005).
Individuals needed to meet DSM-IV criteria for bipolar disorder (I or II) with at least 1 documented episode of illness (depressive, manic or mixed) in the previous 6 months, and had to have been on stable therapy for at least 1 month prior to randomisation. Participants were required to have the capacity to consent to the study and comply with study procedures, and utilise effective contraception where indicated.
Exclusion criteria included individuals with a known or suspected clinically relevant systemic medical disorder, including asthma, bronchospasm, or respiratory insufficiency, recent gastrointestinal ulcers, and individuals who were pregnant or lactating. Individuals taking greater than 500 mg of NAC/day, 200 μg of selenium/day or 500 IU of Vitamin E/day were excluded, as were those with a history of anaphylaxis with NAC or any component of the preparation. Inability to comply with either the requirements of informed consent or the treatment protocol was also an exclusion criterion.
Withdrawal from the study occurred if participants ceased taking their trial medication for 7 consecutive days, stopped effective contraception or became pregnant. Dose changes to existing medications, or the addition or removal of an agent were accepted, and participants were allowed to continue with the study. Participants were withdrawn from the study if they revoked their consent or developed serious adverse events associated with the study drug, which could occur either at the request of the patient or the discretion of the investigator.
Participants were assessed at baseline using a structured clinical interview (MINI-plus) and underwent a physical examination. Clinical status was assessed using the MADRS, BDRS, YMRS, CGI-Improvement and Severity scales for bipolar disorder (CGI-I-BP, CGI-S-BP), GAF, SOFAS, SLICE/LIFE, LIFE RIFT, and Q-LES-Q.
These scales were repeated 2 weekly for the first 4 weeks and 4-weekly thereafter for a total of 24 weeks, or on the day of study termination if the patient withdrew prior to the final scheduled visit. A follow-up visit was conducted 4 weeks (±2 weeks) after the trial completion, either at trial endpoint (week 24), or premature discontinuation, to determine any change in clinical status on treatment discontinuation.
Time to any intervention for mood symptoms was a further outcome measure. […]

[2] = oral NAC; cited from earlier work
[3] = NAC 2 g daily plus treatment as usual, week 24
[4] = post-treatment discontinuation (washout, week 28)
[5] = week 24, MMRM, between treatment group LS mean difference

Question: For `CC(=O)N[C@@H](CS)C(=O)O` [NAC, N-acetyl cysteine], which “BDRS: End point to Week 24 (Mean ± SD), NAC” value [1, 3] is on record?
Answer: The value was 6.7 (6.4).

Question: What about the “CGI-I-BP: End point to Week 24 (Mean ± SD), NAC” value [1, 3] of the same compound?
Answer: Its value is 3.1 (1.6).

Question: And the “CGI-I-D: End point to Week 24 (Mean ± SD), NAC” value [1, 3]?
Answer: Its value is 3.2 (1.6).

Question: And the “CGI-I-M: End point to Week 24 (Mean ± SD), NAC” value [1, 3]?
Answer: The value was 3.7 (1.1).

Question: And the “CGI-S-BP: End point to Week 24 (Mean ± SD), NAC” value [1, 3]?
Answer: Its value is 2.5 (1.2).

Question: And the “CGI-S-D: End point to Week 24 (Mean ± SD), NAC” value [1, 3]?
Answer: Its value is 2.3 (1.1).

Question: And the “CGI-S-M: End point to Week 24 (Mean ± SD), NAC” value [1, 3]?
Answer: Its value is 1.9 (1.2).

Question: And the “GAF: End point to Week 24 (Mean ± SD), NAC” value [1, 3]?
Answer: The value was 71.3 (13.9).

Question: And the “LIFE-RIFE: End point to Week 24 (Mean ± SD), NAC” value [1, 3]?
Answer: The value was 8.9 (3.3).

Question: And the “MADRS: End point to Week 24 (Mean ± SD), NAC” value [1, 3]?
Answer: The value was 6.6 (7.4).

Question: And the “Q-LES-Q: End point to Week 24 (Mean ± SD), NAC” value [1, 3]?
Answer: The value was 59.2 (12.7).

Question: And the “SLICE-LIFE: End point to Week 24 (Mean ± SD), NAC” value [1, 3]?
Answer: The value was 14.9 (5.2).

Question: And the “SOFAS: End point to Week 24 (Mean ± SD), NAC” value [1, 3]?
Answer: The value was 73.7 (13.4).

Question: And the “YMRS: End point to Week 24 (Mean ± SD), NAC” value [1, 3]?
Answer: The value was 2.1 (3.3).

Question: What about the “Adverse event: headaches” value ([1]; NAC group, placebo 8%) of the same compound?
Answer: Its value is 18%.

Question: What about the “Adverse event: heartburn” value ([1]; NAC group, placebo 8%) of the same compound?
Answer: The value was 16%.

Question: What about the “Adverse event: increased pain in joints” value ([1]; NAC group, placebo 8%) of the same compound?
Answer: Its value is 16%.

Question: What about the “Adverse event: changed energy” value ([1]; NAC group, placebo 27%) of the same compound?
Answer: The value was 21%.

Question: And the “Time to a mood episode (Kaplan Meier)” value ([1]; NAC versus placebo, log-rank test)?
Answer: The value was “did not reveal any significant differences”.

Question: And the “Effect sizes (Cohen's d) on all rating scales” value ([1]; after 24 weeks of NAC treatment)?
Answer: The value was “moderate to large effects”.

Question: What about the “Treatment benefit at the post discontinuation visit” value ([1]; any of the scales, week 28) of the same compound?
Answer: Its value is “not evident”.

Question: What about the “Adverse events, NAC group compared to placebo group” value ([1]; checklist of 44 somatic items) of the same compound?
Answer: The value was “No reported event was significantly more common”.

Question: And the “Serious adverse events (SAE) in the group” value ([1]; of the 7 reported, 4 in placebo group)?
Answer: The value was 3.

Question: And the “BDRS: Post-treatment to Week 28 (Mean ± SD), NAC” value [1, 4]?
Answer: Its value is 12.1 (10.8).

Question: And the “CGI-I-BP: Post-treatment to Week 28 (Mean ± SD), NAC” value [1, 4]?
Answer: The value was 3.5 (1.5).

Question: And the “CGI-I-D: Post-treatment to Week 28 (Mean ± SD), NAC” value [1, 4]?
Answer: The value was 3.7 (1.7).

Question: And the “CGI-I-M: Post-treatment to Week 28 (Mean ± SD), NAC” value [1, 4]?
Answer: Its value is 3.7 (1.0).

Question: What about the “CGI-S-BP: Post-treatment to Week 28 (Mean ± SD), NAC” value [1, 4] of the same compound?
Answer: Its value is 3.1 (1.5).

Question: And the “CGI-S-D: Post-treatment to Week 28 (Mean ± SD), NAC” value [1, 4]?
Answer: The value was 3.1 (1.7).

Question: And the “CGI-S-M: Post-treatment to Week 28 (Mean ± SD), NAC” value [1, 4]?
Answer: The value was 1.9 (0.9).

Question: What about the “GAF: Post-treatment to Week 28 (Mean ± SD), NAC” value [1, 4] of the same compound?
Answer: Its value is 66.6 (14.7).

Question: And the “LIFE-RIFE: Post-treatment to Week 28 (Mean ± SD), NAC” value [1, 4]?
Answer: Its value is 10.8 (4.2).

Question: And the “MADRS: Post-treatment to Week 28 (Mean ± SD), NAC” value [1, 4]?
Answer: The value was 12.2 (11.6).

Question: And the “Q-LES-Q: Post-treatment to Week 28 (Mean ± SD), NAC” value [1, 4]?
Answer: The value was 52.8 (11.4).

Question: What about the “SLICE-LIFE: Post-treatment to Week 28 (Mean ± SD), NAC” value [1, 4] of the same compound?
Answer: The value was 17.2 (6.0).

Question: And the “SOFAS: Post-treatment to Week 28 (Mean ± SD), NAC” value [1, 4]?
Answer: The value was 66.9 (16.2).

Question: And the “YMRS: Post-treatment to Week 28 (Mean ± SD), NAC” value [1, 4]?
Answer: The value was 2.8 (3.4).

Question: And the “Response, defined as a 50% reduction in total MADRS score, participants” value ([1]; week 20 compared to baseline, placebo 21)?
Answer: The value was 46%.

Question: What about the “CGI-I-BP: NAC-Placebo at Endpoint LS Mean” value [1, 5] of the same compound?
Answer: Its value is −0.67.

Question: And the “CGI-I-D: NAC-Placebo at Endpoint LS Mean” value [1, 5]?
Answer: Its value is −0.62.

Question: What about the “CGI-I-M: NAC-Placebo at Endpoint LS Mean” value [1, 5] of the same compound?
Answer: Its value is −0.05.

Question: What about the “CGI-S-D: NAC-Placebo at Endpoint LS Mean” value [1, 5] of the same compound?
Answer: The value was −0.67.

Question: And the “CGI-S-M: NAC-Placebo at Endpoint LS Mean” value [1, 5]?
Answer: The value was −0.03.

Question: And the “Response, defined as a 50% reduction in total MADRS score, participants” value ([1]; week 24 compared to baseline, placebo 18)?
Answer: Its value is 51%.

Question: What about the Plasma half-life [2] of the same compound?
Answer: The Plasma half-life was 2 to 3 h.
